Values joined by “and” are separate entries in the source; they are usually repeats but may differ in a detail not shown here. Equal entries are not always repeated.
Columns and labels:
[1] = target: human GABAA α5β2γ1 receptor (Homo sapiens (Human), UniProt P31644+Q8N1C3); test: Radioligand binding assay, [3H]RO7239181 competition, γ1-containing GABAA subtypes; settings: HEK293F membranes, mean of two determinations
Protocol: The affinity of compounds at GABAA γ1 subunit-containing receptors was measured by competition for [^3H]RO7239181 (67.3 Ci/mmol; Roche) binding to membranes from HEK293F cells (ThermoFisher R79007) expressing human (transiently transfected) receptors of composition α5β2γ1, α2β2γ1, α1β2γ1. For better protein expression of the α2 subunit-containing receptors, the 28 amino acid long signal peptide (Met1 to Ala28) of the human GABAA α2 subunit was substituted by the 31 amino acid long signal peptide (Met1 to Ser31) of human GABAA α5 subunit.
(§1) Harvested pellets from HEK293F cells expressing the different GABAA receptor subtypes were resuspended in Mannitol Buffer pH 7.2-7.4 (Mannitol 0.29M, Triethylamine 10 mM, Acetic acid 10 mM, EDTA 1 mM plus protease inhibitors (20 tablets Complete, Roche Diagnostics Cat. No. 05 056 489 001 per liter)), washed two times and then resuspended at 1:10 to 1:15 dilution in the same buffer. Cell disruption was performed by stirring the suspension in a Parr vessel #4637 at 435 psi for 15 minutes, and then the suspensions were centrifuged at 1000×g for 15 minutes at 4° C. (Beckman Avanti J-HC; rotor JS)-4.2). The supernatant (S1) was transferred in a 21 Schott flask and the pellet (P1) was resuspended with Mannitol Buffer up to 175 ml. The resuspended pellet was transferred into a 250 ml Corning centrifugal beaker and centrifuged at 1500×g for 10 minutes at 4° C. (Beckman Avanti J-HC; rotor JS)-4.2). The supernatant (S1) was then transferred in the 21 Schott flask and the pellet was discarded. The supernatants (S1) were centrifuged in 500 ml Beckman polypropylene centrifugal beaker at 15,000×g for 30 minutes at 4° C. (Beckman Avanti J-20 XP; rotor JLA-10.500). The pellet (P2) was resuspended with Mannitol Buffer 1:1 and frozen at −80° C. The supernatant (S2) was centrifuged in 100 ml Beckman polypropylene centrifugal tubes at 48000×g for 50 minutes at […] (Beckman Avanti J-20 XP; rotor JA-18). The supernatant (S3) was discarded and the pellet (P3) was resuspended with 1:1 Mannitol Buffer. The P2 and P3 protein concentration was determined with the BIORAD Standard assay method with bovine serum albumin as standard and measured on the NANO-Drop 1000. The membrane suspension was aliquots (500 μl per tube) and stored at −80° C. until required.
(§2) Membrane homogenates were resuspended and polytronised (Polytron PT1200E Kinematica AG) in Potassium Phosphate 10 mM, KCl 100 mM binding buffer at pH 7.4 to a final assay concentration determined with a previous experiment.
Radioligand binding assays were carried out in a volume of 200 µL (96-well plates) which contained 100 μL of cell membranes, [^3H]RO7239181 at a concentration of 1.5 nM (α5β2γ1) or 20-30 nM (α1β2γ1, 2β2γ1) and the test compound in the range of [0.3-10000]×10^−9 M. Nonspecific binding was defined by 10×10^−6 (α5β2γ1) and 30×10^−6 M RO7235136 and typically represented less than 5% (α5β2γ1) and less than 20% (α1β2γ1, α2β2γ1) of the total binding. Assays were incubated to equilibrium for 1 hour at 4° C. and then, membranes were filtered onto unifilter (96-well white microplate with bonded GF/C filters preincubated 20-50 minutes in 0.3% Polyethylenimine) with a Filtermate 196 harvester (Packard BioScience) and washed 4 times with cold Potassium Phosphate 10 mM pH 7.4, KCl 100 mM binding buffer. After drying, filter-retained radioactivity was detected by liquid scintillation counting. K, values were calculated using Excel-Fit (Microsoft) and are the means of two determinations.
Representative test results, obtained by the above described assay measuring binding affinity to HEK293 cells expressing human (h) receptors, are shown in the Table 1.

[2] = target: human GABAA α1β2γ1 receptor (Homo sapiens (Human), UniProt P14867+Q8N1C3); test: as above; settings: HEK293F membranes, [3H]RO7239181 20-30 nM, mean of two determinations
Protocol: (§3) The affinity of compounds at GABAA γ1 subunit-containing receptors was measured by competition for [^3H]RO7239181 (67.3 Ci/mmol; Roche) binding to membranes from HEK293F cells (ThermoFisher R79007) expressing human (transiently transfected) receptors of composition α5β2γ1, α2β2γ1, α1β2γ1.
as §1, §2
(§4) Assays were incubated to equilibrium for 1 hour at 4° C. and then, membranes were filtered onto unifilter (96-well white microplate with bonded GF/C filters preincubated 20-50 minutes in 0.3% Polyethylenimine) with a Filtermate 196 harvester (Packard BioScience) and washed 4 times with cold Potassium Phosphate 10 mM pH 7.4, KCl 100 mM binding buffer. After drying, filter-retained radioactivity was detected by liquid scintillation counting. K, values were calculated using Excel-Fit (Microsoft) and are the means of two determinations.

[3] = target: human GABAA α2β2γ1 receptor (Homo sapiens (Human), UniProt P47869+Q8N1C3); test: as above; settings: for Ki: HEK293F membranes, [3H]RO7239181 20-30 nM, mean of two determinations, read-out: Ki h-GABAA α2β2γ1; for γ2/γ1 Selectivity Ratio: Ki α1β3γ2 (nM)/Ki α2β2γ1 (nM); for LogSel: Log[Ki α1β3γ2 (nM)/Ki α2β2γ1 (nM)]
Protocol: as §3, §1, §2, §4

[4] = target: human GABAA α1β3γ2 receptor (Homo sapiens (Human), UniProt P14867+P18507); test: Radioligand binding assay, [3H]Flumazenil competition, γ2-containing GABAA subtypes; settings: HEK293F membranes, [3H]Flumazenil 1 nM, mean of two determinations; read-out: Ki h-GABAA α1β3γ2
Protocol: The affinity of compounds at GABAA γ2 subunit-containing receptors was measured by competition for [^3H]Flumazenil (81.1 Ci/mmol; Roche) binding to HEK293F cells expressing human (transiently transfected) receptors of composition α1β3γ2.
Harvested pellets from HEK293F cells expressing the different GABAA γ2 receptor subtypes were resuspended in Mannitol Buffer pH 7.2-7.4 and processed as described above for the cells expressing the GABAA γ1 subunit-containing receptors.
Assays were incubated to equilibrium for 1 hour at 4° C. and harvested onto GF/C uni-filters (Packard) by filtration using a Packard harvester and washing with ice-cold wash buffer (50 mM Tris; pH 7.5). After drying, filter-retained radioactivity was detected by liquid scintillation counting. Ki values were calculated using Exel-Fit (Microsoft) and are the means of two determinations.

| SMILES | Ki [1] [µM] | Ki [2] [µM] | Ki [3] [µM] | γ2/γ1 Selectivity Ratio [3] | LogSel [3] | Ki [4] [µM] |
| --- | --- | --- | --- | --- | --- | --- |
| C[C@@H]1N=C(c2ccccc2F)c2c(ccc(Br)c2Cl)-n2cnnc21 [Example 30, (4S)-8-bromo-7-chloro-6-(2-fluorophenyl)-4-methyl-4H-[1,2,4]triazolo[4,3-a][1,4]benzodiazepine] | 0.0026 | 0.065 | 0.0436 | 13.3 | 1.13 and 1.1 | 0.582 |
| OC1N=C(c2c(F)cccc2F)c2c(ccc(Br)c2Cl)-n2cnnc21 (centres unmarked) [Example 31, 8-bromo-7-chloro-6-(2,6-difluorophenyl)-4H-[1,2,4]triazolo[4,3-a][1,4]benzodiazepin-4-ol] | 0.0028 | 0.0397 | 0.041 | 17.3 | 1.24 | 0.707 |
| C[C@@H]1N=C(c2ccccc2F)c2c(ccc(Br)c2Cl)-n2c(-c3cccnn3)nnc21 [Example 32, (4S)-8-bromo-7-chloro-6-(2-fluorophenyl)-4-methyl-1-pyridazin-3-yl-4H-[1,2,4]triazolo[4,3-a][1,4]benzodiazepine] | 0.0013 | 0.0333 | 0.0105 | 98.2 | 1.99 | 1.03 |
| OC1N=C(c2ccccc2F)c2c(ccc(Br)c2Cl)-n2c(-c3cccnn3)nnc21 (centres unmarked) [Example 35, 8-bromo-7-chloro-6-(2-fluorophenyl)-1-pyridazin-3-yl-4H-[1,2,4]triazolo[4,3-a][1,4]benzodiazepin-4-ol] | 0.0084 | 0.64 | 0.0786 | 35.7 | 1.55 | 2.8 |
| C[C@@H]1N=C(c2c(F)cccc2F)c2c(ccc(Br)c2Cl)-n2cnnc21 [Example 51, (4S)-8-bromo-7-chloro-6-(2,6-difluorophenyl)-4-methyl-4H-[1,2,4]triazolo[4,3-a][1,4]benzodiazepine] | 0.0008 | 0.009 | 0.0049 | 79.5 and 80 | 1.9 | 0.393 |
| C[C@@H]1N=C(c2c(F)cccc2F)c2c(ccc(Cl)c2Cl)-n2c(-c3ccncn3)nnc21 [Example 52, (4S)-7,8-dichloro-6-(2,6-difluorophenyl)-4-methyl-1-pyrimidin-4-yl-4H-[1,2,4]triazolo[4,3-a][1,4]benzodiazepine] | 0.0011 | 0.0102 | 0.0057 | 112.4 | 2.05 | 0.638 |
| C[C@@H]1N=C(c2c(F)cccc2F)c2c(ccc(Cl)c2Cl)-n2c(-c3cnn(C)c3)nnc21 [Example 53, (4S)-7,8-dichloro-6-(2,6-difluorophenyl)-4-methyl-1-(1-methylpyrazol-4-yl)-4H-[1,2,4]triazolo[4,3-a][1,4]benzodiazepine] | 0.0011 | 0.0144 | 0.003 | 82.0 | 1.91 | 0.246 |
| C[C@@H]1N=C(c2c(F)cccc2F)c2c(ccc(Cl)c2Cl)-n2c(-c3cccnn3)nnc21 [Example 56, (4S)-7,8-dichloro-6-(2,6-difluorophenyl)-4-methyl-1-pyridazin-3-yl-4H-[1,2,4]triazolo[4,3-a][1,4]benzodiazepine] | 0.0008 | 0.0038 | 0.0046 | 186.8 | 2.27 | 0.851 |
| C[C@@H]1N=C(c2ncccc2F)c2c(ccc(Cl)c2Cl)-n2c(-c3cccnn3)nnc21 [Example 63, (4S)-7,8-dichloro-6-(3-fluoro-2-pyridyl)-4-methyl-1-pyridazin-3-yl-4H-[1,2,4]triazolo[4,3-a][1,4]benzodiazepine] | 0.0056 | 0.333 | 0.0394 | 103.5 | 2.02 | 4.08 |
| COC[C@@H]1N=C(c2c(F)cccc2F)c2c(ccc(C(F)(F)F)c2Cl)-n2c(C)nnc21 [Example 105, (4R)-7-chloro-6-(2,6-difluorophenyl)-4-(methoxymethyl)-1-methyl-8-(trifluoromethyl)-4H-[1,2,4]triazolo[4,3-a][1,4]benzodiazepine] | 0.0201 | – | 0.0993 | 73.9 | 1.87 | 7.34 |
| Cc1nnc2n1-c1ccc(C(F)(F)F)c(Cl)c1C(c1c(F)cccc1F)=N[C@H]2CO [Example 106, [(4R)-7-chloro-6-(2,6-difluorophenyl)-1-methyl-8-(trifluoromethyl)-4H-[1,2,4]triazlo[4,3-a][1,4]benzodiazepin-4-yl]methanol] | 0.0043 | – | 0.0713 | 107.1 | 2.03 | 7.64 |
| C[C@@H]1N=C(c2c(F)cccc2F)c2c(ccc(C(F)(F)F)c2Cl)-n2cnnc21 [Example 107, (4S)-7-chloro-6-(2,6-difluorophenyl)-4-methyl-8-(trifluoromethyl)-4H-[1,2,4]triazolo[4,3-a][1,4]benzodiazepine] | 0.003 | – | 0.0683 | 51.8 | 1.71 | 3.53 |
| CCc1ccc2c(c1Cl)C(c1c(F)cccc1F)=N[C@@H](C)c1nnc(C)n1-2 [Example 109, (4S)-7-chloro-6-(2,6-difluorophenyl)-8-ethyl-1,4-dimethyl-4H-[1,2,4]triazolo[4,3-a][1,4]benzodiazepine] | 0.0037 | – | 0.0658 | 11.5 | 1.06 | 0.754 |

From patent US20240002393A1, “SUBSTITUTED BENZO[f][l ,2,4JTRIAZOL0[4,3-a][l ,4J[…] GABA A GAMMA! POSITIVE ALLOSTERIC MODULATORS” (Hoffmann-La Roche Inc., priority 2020, published 2024)
